{"source": "patent US7745693B2", "about": "“Inhibitors of plant peptide deformylase for use as broad-spectrum herbicides and methods for identifying the same” (University of Kentucky Research Foundation, priority 2007, dated 2010)", "key": {"[1]": {"system": "Pea plants (Pisum sativum L. cv. Laxton's Progress No. 9)", "experiment": "Assay for in vivo herbicidal activity on pea plants", "details": "ten-day old pea plants", "method": "Pea plants (Pisum sativum L. cv. Laxton's Progress No. 9) were sown in 46×62 cm flats of MetroMix 360 and grown for 10-12 days in a greenhouse (minimum night temperature of 30° C.) as described by Wang, P., Royer, M., and Houtz, R. L. Affinity purification of ribulose-1,5-bisphosphate carboxylase/oxygenase large subunit epsilon N-methyltransferase. Protein Expression and Purification 6:528-526 (1995). Ten-day old pea plants were treated with approximately 100-200 μl actinonin (final concentration. 2.5 mg/ml per plant in 0.1% Tween-20). Control plants were treated with 0.1% Tween-20. […] The changes were clearly visible within 48 hours after treatment with actinonin."}, "AtDEF2": {"target": "T1, AtDEF2 (Arabidopsis thaliana, UniProt Q9FUZ2)", "T1 construct": "the entire putative protein and the ChloroP-predicted chloroplast-length protein; initiator Met from the NdeI site (N); made in house; host or cells: E. coli BL21(DE3)pLysS, pET23b, clone #4-D", "T1 sequence (Q9FUZ2 57-273)": "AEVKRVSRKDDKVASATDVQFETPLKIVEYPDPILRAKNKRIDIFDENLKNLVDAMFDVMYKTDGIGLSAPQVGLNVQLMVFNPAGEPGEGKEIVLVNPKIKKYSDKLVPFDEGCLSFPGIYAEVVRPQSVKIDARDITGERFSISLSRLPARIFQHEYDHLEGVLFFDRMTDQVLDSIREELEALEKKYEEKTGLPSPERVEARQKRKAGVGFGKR", "experiment": "Continuous spectrophotometric peptide deformylase activity and inhibition assay (formyl-Met-Leu-p-nitroanilide, coupled with Aeromonas proteolytica aminopeptidase)", "assay_type": "biochemical", "method": "Experiments were designed to detect deformylase activity from recombinant AtDEF2 using the assay as described by Wei and Pei, Analytical Biochemistry 250:29-34 (1997). Continuous spectrophotometric assays of peptide deformylase activity were carried out at a temperature of 20° C. Assays were performed in polystyrene or quartz cuvettes containing 50 mM Tris-HCl, pH 8.2, 1 mM ethylene diamine bis(β-aminoethyl ether-N,N′-tetraacetic acid ([…]), 5 mM MgCl2, 200 μM NiSO4 0-200 μM peptide substrate and 1.0 units of Aeromonas proteolytica aminopeptidase. […] The reactions were monitored continuously at 405 nm in a Shimadzu UV-201 PC scanning spectrophotometer, and the initial rates were calculated from the early part of the reaction progression curves (<60 s). Spectrophotometric detection and quantitation was performed of p-nitroaniline released from formyl-Met-Leu-p-nitroanilide substrate (BACHEM Cat. No. L2030; King of Prussia, Pa. 19406 USA) following sequential action of AtDEF2 and Aeromonas proteolytica aminopeptidase (Sigma Cat. No. A8200; St. Louis, Mo., 63118 USA)."}}, "data": [{"smiles": "CCCCC[C@H](CC(=O)NO)C(=O)N[C@H](C(=O)N1CCC[C@H]1CO)C(C)C", "note": "[actinonin]", "values": [{"measurement": "time after treatment at which changes were clearly visible", "setting": "[1]; 2.5 mg/ml actinonin in 0.1% Tween-20", "result": "≤ 48", "unit": "h"}, {"measurement": "observable alterations in plant growth", "setting": "[1]; approximately 100-200 μl actinonin, 2.5 mg/ml per plant in 0.1% Tween-20, foliar application", "result": "stunting and yellowing of pea plants"}, {"measurement": "inhibition of deformylase activity after preincubation", "setting": "AtDEF2; 43.5 μg AtDEF2 preincubated 3 minutes with 3.2 μM actinonin, assay then initiated with substrate", "result": "Nearly complete inhibition"}, {"measurement": "inhibition of AtDEF2 activity (actinonin included in assay, no preincubation)", "setting": "AtDEF2; within 60 seconds, FIG. 8, 20° C.", "result": "significantly inhibited"}]}]}
